Measurements from PubChem BioAssay AID1918931 (Molecular Pharmacology Branch, DTP, NCI, 2023).
pIC50: −log10 of the molar value.

Test system: 138582-337-R-J1-PDC complex spheroid viability
Experiment: Anticancer human tumor 138582-337-R-J1-PDC patient-derived Merkel cell tumor cell line growth inhibition
Settings: for pIC50: curve of first compound; for viability, T/C: stronger effect = lower value; active means viability on the fitted dose curve at most 10% of control; inactive means the rest
Procedure, shortened: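 Drug combinations with the LSD1 inhibitor iadademstat tested on tumor cells co-cultured as spheroids with endothelial cells and mesenchymal stem cells. Concentrations descended in half-log increments from clinical Cmax or 10 microM.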

[1] = second compound 0.1 µM, first compound 0.00316 µM
[2] = second compound 0.1 µM, first compound 0.01 µM
[3] = second compound 0.1 µM, first compound 0.0316 µM
[4] = second compound 0.1 µM, first compound 0.1 µM
[5] = second compound 0.316 µM, first compound 0.00316 µM
[6] = second compound 0.316 µM, first compound 0.01 µM
[7] = second compound 0.316 µM, first compound 0.0316 µM
[8] = second compound 0.316 µM, first compound 0.1 µM
[9] = second compound 1 µM, first compound 0.00316 µM
[10] = second compound 1 µM, first compound 0.01 µM
[11] = second compound 1 µM, first compound 0.0316 µM
[12] = second compound 1 µM, first compound 0.1 µM
[13] = second compound 3.16 µM, first compound 0.00316 µM
[14] = second compound 3.16 µM, first compound 0.01 µM
[15] = second compound 3.16 µM, first compound 0.0316 µM
[16] = second compound 3.16 µM, first compound 0.1 µM
[17] = second compound 10 µM, first compound 0.00316 µM
[18] = second compound 10 µM, first compound 0.01 µM
[19] = second compound 10 µM, first compound 0.0316 µM
[20] = second compound 10 µM, first compound 0.1 µM
[21] = second compound 0.1 µM, first compound 0.000949 µM
[22] = second compound 0.1 µM, first compound 0.003 µM
[23] = second compound 0.1 µM, first compound 0.00949 µM
[24] = second compound 0.1 µM, first compound 0.03 µM
[25] = second compound 0.1 µM, first compound 0.0949 µM
[26] = second compound 0.1 µM, first compound 0.3 µM
[27] = second compound 0.316 µM, first compound 0.000949 µM
[28] = second compound 0.316 µM, first compound 0.003 µM
[29] = second compound 0.316 µM, first compound 0.00949 µM
[30] = second compound 0.316 µM, first compound 0.03 µM
[31] = second compound 0.316 µM, first compound 0.0949 µM
[32] = second compound 0.316 µM, first compound 0.3 µM
[33] = second compound 1 µM, first compound 0.000949 µM
[34] = second compound 1 µM, first compound 0.003 µM
[35] = second compound 1 µM, first compound 0.00949 µM
[36] = second compound 1 µM, first compound 0.03 µM
[37] = second compound 1 µM, first compound 0.0949 µM
[38] = second compound 1 µM, first compound 0.3 µM
[39] = second compound 3.16 µM, first compound 0.000949 µM
[40] = second compound 3.16 µM, first compound 0.003 µM
[41] = second compound 3.16 µM, first compound 0.00949 µM
[42] = second compound 3.16 µM, first compound 0.03 µM
[43] = second compound 3.16 µM, first compound 0.0949 µM
[44] = second compound 3.16 µM, first compound 0.3 µM
[45] = second compound 10 µM, first compound 0.000949 µM
[46] = second compound 10 µM, first compound 0.003 µM
[47] = second compound 10 µM, first compound 0.00949 µM
[48] = second compound 10 µM, first compound 0.03 µM
[49] = second compound 10 µM, first compound 0.0949 µM
[50] = second compound 10 µM, first compound 0.3 µM
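Further: spheroids exposed to agents for 7 days.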
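Wherever viability, T/C is given: 100% = DMSO vehicle control viability.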

CC[C@@]1(O)C(=O)OCc2c1cc1n(c2=O)Cc2cc3c(CN(C)C)c(O)ccc3nc2-1 + NC1CCC(NC2CC2c2ccccc2)CC1
< 7.00: pIC50 (second compound 0.1 µM) | pIC50 (second compound 0.316 µM) | pIC50 (second compound 1 µM) | pIC50 (second compound 3.16 µM) | pIC50 (second compound 10 µM)
inactive: viability, T/C (second compound 0.1 µM, first compound 0.000316 µM) 91% | viability, T/C (second compound 0.1 µM, first compound 0.001 µM) 99.7% | viability, T/C [1] 105% | viability, T/C [2] 101% | viability, T/C [3] 98.9% | viability, T/C [4] 114% | viability, T/C (second compound 0.316 µM, first compound 0.000316 µM) 101% | viability, T/C (second compound 0.316 µM, first compound 0.001 µM) 96.8% | viability, T/C [5] 120% | viability, T/C [6] 102% | viability, T/C [7] 95.7% | viability, T/C [8] 92.2% | viability, T/C (second compound 1 µM, first compound 0.000316 µM) 92% | viability, T/C (second compound 1 µM, first compound 0.001 µM) 101% | viability, T/C [9] 115% | viability, T/C [10] 95.6% | viability, T/C [11] 105% | viability, T/C [12] 107% | viability, T/C (second compound 3.16 µM, first compound 0.000316 µM) 91.2% | viability, T/C (second compound 3.16 µM, first compound 0.001 µM) 96.6% | viability, T/C [13] 104% | viability, T/C [14] 106% | viability, T/C [15] 93.4% | viability, T/C [16] 105% | viability, T/C (second compound 10 µM, first compound 0.000316 µM) 95.4% | viability, T/C (second compound 10 µM, first compound 0.001 µM) 91.6% | viability, T/C [17] 86.8% | viability, T/C [18] 87.3% | viability, T/C [19] 91.2% | viability, T/C [20] 70.7%

CCc1c2c(nc3ccc(O)cc13)-c1cc3c(c(=O)n1C2)COC(=O)[C@]3(O)CC + NC1CCC(NC2CC2c2ccccc2)CC1
7.97: pIC50 (second compound 10 µM)
7.94: pIC50 (second compound 0.316 µM)
inactive: viability, T/C [21] 91.7% | viability, T/C [22] 87.9% | viability, T/C [23] 57.5% | viability, T/C [24] 18.6% | viability, T/C [27] 85.1% | viability, T/C [28] 84.6% | viability, T/C [29] 55.1% | viability, T/C [30] 18.2% | viability, T/C [33] 80.9% | viability, T/C [34] 78.7% | viability, T/C [35] 51.5% | viability, T/C [36] 14.5% | viability, T/C [39] 78.3% | viability, T/C [40] 75.1% | viability, T/C [41] 58.9% | viability, T/C [42] 17.6% | viability, T/C [45] 68.8% | viability, T/C [46] 68.9% | viability, T/C [47] 54.2%
7.92: pIC50 (second compound 0.1 µM) | pIC50 (second compound 3.16 µM)
active: viability, T/C [25] 0.42% | viability, T/C [26] 0.49% | viability, T/C [31] 0.45% | viability, T/C [32] 0.5% | viability, T/C [37] 0.38% | viability, T/C [38] 0.35% | viability, T/C [43] 0.39% | viability, T/C [44] 0.54% | viability, T/C [48] 9.4% | viability, T/C [49] 0.34% | viability, T/C [50] 0.52%
8.00: pIC50 (second compound 1 µM)

COc1cc(C2c3cc4c(cc3C(OC3OC5COC(C)OC5C(O)C3O)C3COC(=O)C23)OCO4)cc(OC)c1O (stereo not given) + NC1CCC(NC2CC2c2ccccc2)CC1
inactive: viability, T/C [23] 105% | viability, T/C [24] 89.8% | viability, T/C [25] 67.3% | viability, T/C [26] 69.4% | viability, T/C (second compound 0.1 µM, first compound 0.949 µM) 70.3% | viability, T/C (second compound 0.1 µM, first compound 3 µM) 66.4% | viability, T/C [29] 102% | viability, T/C [30] 76.3% | viability, T/C [31] 85.4% | viability, T/C [32] 85.8% | viability, T/C (second compound 0.316 µM, first compound 0.949 µM) 74% | viability, T/C (second compound 0.316 µM, first compound 3 µM) 60.7% | viability, T/C [35] 90.8% | viability, T/C [36] 95.3% | viability, T/C [37] 76% | viability, T/C [38] 68.7% | viability, T/C (second compound 1 µM, first compound 0.949 µM) 94.1% | viability, T/C (second compound 1 µM, first compound 3 µM) 85.2% | viability, T/C [41] 82.6% | viability, T/C [42] 87.3% | viability, T/C [43] 85.1% | viability, T/C [44] 71.6% | viability, T/C (second compound 3.16 µM, first compound 0.949 µM) 69.1% | viability, T/C (second compound 3.16 µM, first compound 3 µM) 95.3% | viability, T/C [47] 73.8% | viability, T/C [48] 81.6% | viability, T/C [49] 75.3% | viability, T/C [50] 82% | viability, T/C (second compound 10 µM, first compound 0.949 µM) 65.5% | viability, T/C (second compound 10 µM, first compound 3 µM) 56.7%
< 5.52: pIC50 (second compound 0.1 µM) | pIC50 (second compound 0.316 µM) | pIC50 (second compound 1 µM) | pIC50 (second compound 3.16 µM) | pIC50 (second compound 10 µM)

Nc1ccn(C2OC(CO)C(O)C2(F)F)c(=O)n1 (stereo not given) + NC1CCC(NC2CC2c2ccccc2)CC1
inactive: viability, T/C [21] 96% | viability, T/C [22] 94.2% | viability, T/C [23] 94.2% | viability, T/C [24] 95.3% | viability, T/C [25] 94.7% | viability, T/C [26] 105% | viability, T/C [27] 89.9% | viability, T/C [28] 92% | viability, T/C [29] 93.6% | viability, T/C [30] 85.8% | viability, T/C [31] 84.2% | viability, T/C [32] 106% | viability, T/C [33] 98.3% | viability, T/C [34] 93.7% | viability, T/C [35] 95.4% | viability, T/C [36] 80.9% | viability, T/C [37] 108% | viability, T/C [38] 85.6% | viability, T/C [39] 79.8% | viability, T/C [40] 81% | viability, T/C [41] 91.8% | viability, T/C [42] 87.9% | viability, T/C [43] 85.8% | viability, T/C [44] 88.7% | viability, T/C [45] 88.7% | viability, T/C [46] 71.1% | viability, T/C [47] 87% | viability, T/C [48] 79.4% | viability, T/C [49] 76.4% | viability, T/C [50] 92.6%
< 6.52: pIC50 (second compound 0.1 µM) | pIC50 (second compound 0.316 µM) | pIC50 (second compound 1 µM) | pIC50 (second compound 3.16 µM) | pIC50 (second compound 10 µM)

Nc1ncn(C2CC(O)C(CO)O2)c(=O)n1 (stereo not given) + NC1CCC(NC2CC2c2ccccc2)CC1
< 6.00: pIC50 (second compound 0.1 µM) | pIC50 (second compound 0.316 µM) | pIC50 (second compound 1 µM) | pIC50 (second compound 3.16 µM) | pIC50 (second compound 10 µM)
inactive: viability, T/C [1] 98.7% | viability, T/C [2] 97.8% | viability, T/C [3] 103% | viability, T/C [4] 108% | viability, T/C (second compound 0.1 µM, first compound 0.316 µM) 95.4% | viability, T/C (second compound 0.1 µM, first compound 1 µM) 102% | viability, T/C [5] 82.7% | viability, T/C [6] 99.4% | viability, T/C [7] 96.6% | viability, T/C [8] 107% | viability, T/C (second compound 0.316 µM, first compound 0.316 µM) 89.7% | viability, T/C (second compound 0.316 µM, first compound 1 µM) 96.5% | viability, T/C [9] 96.9% | viability, T/C [10] 110% | viability, T/C [11] 97.5% | viability, T/C [12] 81.1% | viability, T/C (second compound 1 µM, first compound 0.316 µM) 83.2% | viability, T/C (second compound 1 µM, first compound 1 µM) 97.3% | viability, T/C [13] 100% | viability, T/C [14] 97.5% | viability, T/C [15] 93.1% | viability, T/C [16] 91.8% | viability, T/C (second compound 3.16 µM, first compound 0.316 µM) 103% | viability, T/C (second compound 3.16 µM, first compound 1 µM) 95.3% | viability, T/C [17] 87.2% | viability, T/C [18] 86% | viability, T/C [19] 91.8% | viability, T/C [20] 82.4% | viability, T/C (second compound 10 µM, first compound 0.316 µM) 84.7% | viability, T/C (second compound 10 µM, first compound 1 µM) 76.1%
